Measurements published in US20140073634A1 (Institute For Applied Cancer Science/The University of …, priority 2012, published 2014).

System: 293T-HRE-GFP-luc cells
Assay: Cell-based reporter assay for IC50 determinations (HRE-luciferase, hypoxia)
Details: 6 h, 6 hrs hypoxia (1% O2), luminescence
Method: Cell-Based Reporter Assay for IC50 Determinations
293T-HRE-GFP-luc cells were routinely maintained in DMEM media (high glucose version with GlutaMAX and HEPES, Gibco, catalog #10564) supplemented with 10% fetal bovine serum and 2 μg/mL puromycin (Invitrogen, catalog #A11138-03) using a humidified incubator (normoxia conditions consisting of 37° C., 5% CO2 and ambient O2).
In preparation for the reporter assay, cells were harvested and resuspended in DMEM media (high glucose version with GlutaMAX and HEPES) supplemented with 10% fetal bovine serum. Cells were inoculated into 384-well white Culturplates (Perkin Elmer catalog #6007680) at a density of 12,000 cells/well in a volume of […]. The microplates were incubated overnight (approximately 17-19 hours) at 37° C. with 5% CO2 and ambient O2. Stock solutions of the test compounds were prepared in DMSO (Sigma, Catalog #D2650) and serially diluted 1:3 using DMSO. Compounds were additionally diluted (1:50) with culturemedium and 10 µL were added per well to the Culturplate. Following a 30 min. incubation under normoxia conditions, the plates were incubated in hypoxia for 6 hrs. (37° C., 5% CO2 and 1% O2). Steadylite Plus (Perkin Elmer, catalog #6016751) was then added ([…]), the plates were mixed on an orbital shaker at room temperature in the dark for 15 min., and luminescence was measured using an Envision plate reader (Perkin Elmer). IC50 values were calculated using a four-parameter logistic curve fit. Results are shown below in Table 2; ND indicates no data.

Row | Compound | IC50 [nM]
1 | Cc1ccc(Cn2cc(-c3nc(-c4ccc(OC(F)(F)F)cc4)no3)ccc2=O)cc1 [Example 26, 1-(4-Methylbenzyl)-5-(3-(4-(trifluoromethoxy)phenyl)-1,2,4-oxadiazol-5-yl)pyridin-2(1H)-one] | < 100
2 | Cc1ccc(-c2nnc(-c3ccc(OC(F)(F)F)cc3)o2)c(=O)n1Cc1ccnc(N2CCOCC2)c1 [Example 27, 6-Methyl-1-((2-morpholinopyridin-4-yl)methyl)-3-(5-(4-(trifluoromethoxy)phenyl)-1,3,4-oxadiazol-2-yl)pyridin-2(1H)-one] | 100 to 1000
3 | Cc1ccc(-c2nnc(-c3ccc(OC(F)(F)F)cc3)o2)c(=O)n1Cc1ccnc(N2CCC(C#N)CC2)c1 [Example 28, 1-(4-((6-Methyl-2-oxo-3-(5-(4-(trifluoromethoxy)phenyl)-1,3,4-oxadiazol-2-yl)pyridin-1(2H)-yl)methyl)pyridin-2-yl)piperidine-4-carbonitrile] | 100 to 1000
4 | COC(=O)Cc1cccc(Cn2nc(-c3nc(-c4ccc(OC(F)(F)F)cc4)no3)ccc2=O)c1 [Example 29, Methyl 2-{3-[(6-oxo-3-{3-[4-(trifluoromethoxy)phenyl]-1,2,4-oxadiazol-5-yl}-1,6-dihydropyridazin-1-yl)methyl]phenyl}acetate] | < 100
5 | COC(=O)C(C)(C)c1cccc(Cn2nc(-c3nc(-c4ccc(OC(F)(F)F)cc4)no3)ccc2=O)c1 [Example 30, Methyl 2-methyl-2-{3-[(6-oxo-3-{3-[4-(trifluoromethoxy)phenyl]-1,2,4-oxadiazol-5-yl}-1,6-dihydropyridazin-1-yl)methyl]phenyl}propanoate] | < 100
6 | O=c1ccc(-c2nc(-c3ccc(OC(F)(F)F)cc3)no2)cn1Cc1cccc(N2CCCC2)c1 [Example 31, 1-{[3-(Pyrrolidin-1-yl)phenyl]methyl}-5-{3-[4-(trifluoromethoxy)phenyl]-1,2,4-oxadiazol-5-yl}-1,2-dihydropyridin-2-one] | < 100
7 | O=c1ccc(-c2nc(-c3ccc(OC(F)(F)F)cc3)no2)cn1Cc1cccc(O)c1 [Example 32, 1-[(3-Hydroxyphenyl)methyl]-5-{3-[4-(trifluoromethoxy)phenyl]-1,2,4-oxadiazol-5-yl}-1,2-dihydropyridin-2-one] | 100 to 1000
8 | COCCOc1cccc(Cn2cc(-c3nc(-c4ccc(OC(F)(F)F)cc4)no3)ccc2=O)c1 [Example 33, 1-{[3-(2-Methoxyethoxy)phenyl]methyl}-5-{3-[4-(trifluoromethoxy)phenyl]-1,2,4-oxadiazol-5-yl}-1,2-dihydropyridin-2-one] | 100 to 1000
9 | NCCOc1cccc(Cn2cc(-c3nc(-c4ccc(OC(F)(F)F)cc4)no3)ccc2=O)c1 [Example 34, 1-{[3-(2-Aminoethoxy)phenyl]methyl}-5-{3-[4-(trifluoromethoxy)phenyl]-1,2,4-oxadiazol-5-yl}-1,2-dihydropyridin-2-one] | < 100
10 | CN(C)S(=O)(=O)c1cccc(Cn2cc(-c3nc(-c4ccc(OC(F)(F)F)cc4)no3)ccc2=O)c1 [Example 35, N,N-Dimethyl-3-[(2-oxo-5-{3-[4-(trifluoromethoxy)phenyl]-1,2,4-oxadiazol-5-yl}-1,2-dihydropyridin-1-yl)methyl]benzene-1-sulfonamide] | < 100
11 | CC(C)(C(=O)O)c1cccc(Cn2cc(-c3nc(-c4ccc(OC(F)(F)F)cc4)no3)ccc2=O)c1 [Example 36, 2-Methyl-2-{3-[(2-oxo-5-{3-[4-(trifluoromethoxy)phenyl]-1,2,4-oxadiazol-5-yl}-1,2-dihydropyridin-1-yl)methyl]phenyl}propanoic acid] | 100 to 1000
12 | CCCS(=O)(=O)c1cccc(Cn2cc(-c3nc(-c4ccc(OC(F)(F)F)cc4)no3)ccc2=O)c1 [Example 37, 1-{[3-(propane-1-sulfonyl)phenyl]methyl}-5-{3-[4-(trifluoromethoxy)phenyl]-1,2,4-oxadiazol-5-yl}-1,2-dihydropyridin-2-one] | < 100
13 | CC(C)(CO)c1cccc(Cn2cc(-c3nc(-c4ccc(OC(F)(F)F)cc4)no3)ccc2=O)c1 [Example 38, 1-{[3-(1-Hydroxy-2-methylpropan-2-yl)phenyl]methyl}-5-{3-[4-(trifluoromethoxy)phenyl]-1,2,4-oxadiazol-5-yl}-1,2-dihydropyridin-2-one] | 100 to 1000
14 | CC(C)(O)c1cccc(Cn2cc(-c3nc(-c4ccc(OC(F)(F)F)cc4)no3)ccc2=O)c1 [Example 39, 1-{[3-(2-Hydroxypropan-2-yl)phenyl]methyl}-5-{3-[4-(trifluoromethoxy)phenyl]-1,2,4-oxadiazol-5-yl}-1,2-dihydropyridin-2-one] | < 100
15 | CN(C)C(=O)/C=C/c1cccc(Cn2cc(-c3nc(-c4ccc(OC(F)(F)F)cc4)no3)ccc2=O)c1 [Example 40, (2E)-N,N-dimethyl-3-{3-[(2-oxo-5-{3-[4-(trifluoromethoxy)phenyl]-1,2,4-oxadiazol-5-yl}-1,2-dihydropyridin-1-yl)methyl]phenyl}prop-2-enamide] | < 100
16 | CS(=O)(=O)C1CCN(c2cccc(Cn3cc(-c4nc(-c5ccc(OC(F)(F)F)cc5)no4)ccc3=O)c2)CC1 [Example 41, 1-{[3-(4-Methanesulfonylpiperidin-1-yl)phenyl]methyl}-5-{3-[4-(trifluoromethoxy)phenyl]-1,2,4-oxadiazol-5-yl}-1,2-dihydropyridin-2-one] | < 100
17 | O=c1ccc(-c2nc(-c3ccc(OC(F)(F)F)cc3)no2)cn1Cc1cccc(CCO)c1 [Example 42, 1-{[3-(2-Hydroxyethyl)phenyl]methyl}-5-{3-[4-(trifluoromethoxy)phenyl]-1,2,4-oxadiazol-5-yl}-1,2-dihydropyridin-2-one] | < 100
18 | O=c1ccc(-c2nc(-c3ccc(OC(F)(F)F)cc3)no2)cn1Cc1cccc(CO)c1 [Example 43, 1-{[3-(Hydroxymethyl)phenyl]methyl}-5-{3-[4-(trifluoromethoxy)phenyl]-1,2,4-oxadiazol-5-yl}-1,2-dihydropyridin-2-one] | < 100
19 | CC(=O)SCc1cccc(Cn2cc(-c3nc(-c4ccc(OC(F)(F)F)cc4)no3)ccc2=O)c1 [Example 44, 1-({3-[(Acetylsulfanyl)methyl]phenyl}methyl)-5-{3-[4-(trifluoromethoxy)phenyl]-1,2,4-oxadiazol-5-yl}-1,2-dihydropyridin-2-one] | < 100
20 | O=c1ccc(-c2nc(-c3ccc(OC(F)(F)F)cc3)no2)cn1Cc1cccc(CS)c1 [Example 45, 1-{[3-(Sulfanylmethyl)phenyl]methyl}-5-{3-[4-(trifluoromethoxy)phenyl]-1,2,4-oxadiazol-5-yl}-1,2-dihydropyridin-2-one] | < 100
21 | COC(=O)CCc1cccc(Cn2cc(-c3nc(-c4ccc(OC(F)(F)F)cc4)no3)ccc2=O)c1 [Example 46, Methyl 3-{3-[(2-oxo-5-{3-[4-(trifluoromethoxy)phenyl]-1,2,4-oxadiazol-5-yl}-1,2-dihydropyridin-1-yl)methyl]phenyl}propanoate] | < 100
22 | O=C(O)CCc1cccc(Cn2cc(-c3nc(-c4ccc(OC(F)(F)F)cc4)no3)ccc2=O)c1 [Example 47, 3-{3-[(2-oxo-5-{3-[4-(trifluoromethoxy)phenyl]-1,2,4-oxadiazol-5-yl}-1,2-dihydropyridin-1-yl)methyl]phenyl}propanoic acid] | 100 to 1000
23 | O=c1ccc(-c2nc(-c3ccc(OC(F)(F)F)cc3)no2)cn1Cc1cccc(CCCO)c1 [Example 48, 1-{[3-(3-Hydroxypropyl)phenyl]methyl}-5-{3-[4-(trifluoromethoxy)phenyl]-1,2,4-oxadiazol-5-yl}-1,2-dihydropyridin-2-one] | < 100
24 | CN(C)C(=O)CCc1cccc(Cn2cc(-c3nc(-c4ccc(OC(F)(F)F)cc4)no3)ccc2=O)c1 [Example 49, N,N-Dimethyl-3-{3-[(2-oxo-5-{3-[4-(trifluoromethoxy)phenyl]-1,2,4-oxadiazol-5-yl}-1,2-dihydropyridin-1-yl)methyl]phenyl}propanamide] | < 100
25 | CC(C)(O)c1cc(Cn2cc(-c3nc(-c4ccc(OC(F)(F)F)cc4)no3)ccc2=O)ccn1 [Example 50, 1-{[2-(2-Hydroxypropan-2-yl)pyridin-4-yl]methyl}-5-{3-[4-(trifluoromethoxy)phenyl]-1,2,4-oxadiazol-5-yl}-1,2-dihydropyridin-2-one] | 100 to 1000
26 | COCCOc1cc(Cn2cc(-c3nc(-c4ccc(OC(F)(F)F)cc4)no3)ccc2=O)ccn1 [Example 51, 1-{[2-(2-Methoxyethoxy)pyridin-4-yl]methyl}-5-{3-[4-(trifluoromethoxy)phenyl]-1,2,4-oxadiazol-5-yl}-1,2-dihydropyridin-2-one] | 100 to 1000
27 | C=Cc1cccc(Cn2cc(-c3nc(-c4ccc(OC(F)(F)F)cc4)no3)ccc2=O)c1 [Example 52, 5-(3-(4-(Trifluoromethoxy)phenyl)-1,2,4-oxadiazol-5-yl)-1-(3-vinylbenzyl)pyridin-2(1H)-one] | < 100
28 | O=c1ccc(-c2nc(-c3ccc(OC(F)(F)F)cc3)no2)cn1Cc1cccc(C(O)CO)c1 (centres unmarked) [Example 53, 1-(3-(1,2-Dihydroxyethyl)benzyl)-5-(3-(4-(trifluoromethoxy)phenyl)-1,2,4-oxadiazol-5-yl)pyridin-2(1H)-one] | < 100
29 | C=CCOc1cccc(Cn2cc(-c3nc(-c4ccc(OC(F)(F)F)cc4)no3)ccc2=O)c1 [Example 54, 1-(3-(Allyloxy)benzyl)-5-(3-(4-(trifluoromethoxy)phenyl)-1,2,4-oxadiazol-5-yl)pyridin-2(1H)-one] | < 100
